This note sets out measurements from patent US20240002470A1, “Method for separation and/or detection and/or in vitro quantification of infectious compounds in biological material” (priority 2020, published 2024).

Holding throughout (assay type): binding
Assay [1] has as its system endogenous human retrovirus antigen (HERV), envelope protein of HERV-W. In words: Capture of HERV antigen from serum on ELISA-type microtiter plates. On the procedure:
The desired compound is an endogenous human retrovirus antigen (HERV: human endogenous retrovirus). Their research was carried out on serum from patients with autoimmune pathologies as well as on serum from healthy donors.
The support used is a microtiter plate of the ELISA type, with 96 wells and flat bottom, sold by the company “DYNATECH”. Four samples of serum from healthy donors and four samples from patients with autoimmune disease were used.
The serum sample is diluted ten times in 50 mM Tris-HCl buffer, pH 7.6±0.05.
100 μl of this solution are placed at the bottom of each well of the microplate.
This is then incubated at +37° C. for 90 minutes. The liquid from each well is then aspirated. Then 300 to 400 μl of phosphate buffer containing 0.01 mole/I of sodium and disodium phosphates and 0.15 mole/I of sodium chloride and having a pH of 7.00±0.05 are introduced into each well.
It is left in contact with the support for 3 minutes and the buffer is aspirated; this washing operation is carried out three times.
Next, 100 μl of a specific murine monoclonal antibody solution directed against the envelope protein of the endogenous HERV-W retrovirus is added per well.
The plate is left at 37° C. for 60 minutes.
Following this incubation, the contents of the wells of the plate are aspirated. 300 to 400 μl of phosphate buffer, described above, are introduced into each well, and after a contact time of 3 minutes, the buffer is aspirated; this washing operation is carried out three times.
Then, 100 μL of a solution of a polyclonal antibody recognizing the murine antibodies are added per well. The plate is left at 37° C. for 60 minutes. Following this incubation, the contents of the wells of the plate are aspirated. 300 to 400 μl of phosphate buffer, described above, are introduced into each well, and after a contact time of 3 minutes, the buffer is aspirated; this washing operation is carried out six times.
100 μl of a solution of o-phenylene diamine, 2HCl in a sodium citrate buffer are added per well. It is left to incubate for 30 minutes at room temperature, then the reaction is stopped by adding to each well 50 μl of 2N H2 SO4. The absorbance at 492 nm obtained at the end of the reaction is measured using a plate reader robot.
Results in the following table are expressed in P/2N, P corresponding to the average of the absorbances obtained for a given serum and N corresponding to the average of the absorbances obtained from healthy donors, multiplied by 2.
A general note: An ELISA detects its analyte on a solid surface through an enzyme-linked reagent.

The test system of assay [2] is bacteria present in treated wastewater. In words: Capture of bacteria present in treated wastewater on magnetic microbeads, culture and counting. The procedure: One ml of the culture of bacteria to be studied is placed in a hemolysis tube. 100 μl of buffer are added, the trade name of which is TTGB, then 20 μl of microbeads. The tube is stirred horizontally, to mix the microbeads well, and incubated at 37° C. or at room temperature (TA=22° C.) for half an hour. At the end of the incubation, the microbeads are separated from the liquid phase by means of a magnet, placed externally against the wall of the tube. The microbeads are then washed twice with LB medium and then resuspended in 1 ml of BTS culture medium (Tripticase-Soy broth) having the following formulation: […]
This culture medium is brought to a boil and then autoclaved, to make it sterile, before use. 20 μl of the microbead suspension are taken and spread in a Petri dish containing TS agar (Trypticase-Soya agar) having the following formulation: […]
The Petri dishes are incubated at +37° C. for 24 hours. The bacteria that have grown on the agar are then counted.
The beads, on which β2GPI and peptides derived therefrom were grafted, were used to capture the bacteria present in treated wastewater. This water was recovered at the outlet of the purifier from the Grau-du-Roi treatment plant. The same experiment as that described in the previous example was carried out.

Another assay relates to Yeast. Description: Capture from blood culture on magnetic microbeads, culture on TS agar: yeast. The procedure: (§1) The beads, on which β2GPI and peptides derived therefrom were grafted, were used for the capture of bacteria present in human blood and highlighted by blood culture.
(§2) These blood cultures are carried out by placing a venous blood sample […] in aerobic vials of BacT/ALERT®3D type. These flasks are then incubated in an automated system at 35° C. for at least 5 days. The bottles are equipped with a colorimetric detection system with a sensor located at the base of each bottle. Carbon dioxide produced by growing bacteria changes the color of the sensor; this change in color is detected by an automated system and indicates the presence of bacterial growth: these blood cultures are said to be positive. In the BacT/ALERT®3D vials there are particles of activated carbon, which inhibit antibiotics potentially present in the blood of patients, thereby improving the detection of microorganisms. To confirm the presence of bacteria in blood cultures which have been found positive, the hospital performs a culture on blood agar. […]
(§3) To test the interaction of microbeads coated with β2GPI and the peptides derived from them, with bacteria present in the blood, 1 ml of blood culture is taken from each sample and placed in a 15 ml tube. […] The bacteria that have grown on the agar were then counted.

A further assay concerns E. faecium. In words: Capture from blood culture on magnetic microbeads, culture on TS agar: E. faecium. The procedure:
as §1, §2, §3

The subject of another assay is S. maltophilia. In words: Capture from blood culture on magnetic microbeads, culture on TS agar: S. maltophilia. On the procedure:
as §1, §2, §3

Where [3] appears, read: serum 6s (patient with autoimmune pathology).
The mark [4] stands for this setting: serum 45s (patient with autoimmune pathology).
Where [5] appears, read: serum 99s (patient with autoimmune pathology).
Where [6] appears, read: serum 100s (patient with autoimmune pathology).

Consider H-((SSLAFWK)2-K)2-K—NH2 [Peptide P11], for which the P/2N in assay [1] (setting [3]) stood at 1.185; in assay [1] (setting [4]), 1.228; in assay [1] (setting [5]), 0.977; in assay [1] (setting [6]), 4.039; in assay [1] (serum DS 45s (healthy donor)) it was 0.77; in assay [1] (serum DS 46s (healthy donor)), 0.718. Also, the results for the P/2N in assay [1] (serum DS 60s (healthy donor)) and in assay [1] (serum DS 61s (healthy donor)) were 0.631 and 0.727, respectively. The “% compared to β2GPI” value in assay [2] was 105%; in the assay on Yeast it was 89%; with E. faecium it was 88%; in the assay with S. maltophilia, 29%.

B1: β2GPI: plasma glycoprotein called β2-glycoprotein I, grafted on beads as the reference (protein, UniProt P02749 20-345, looked up)
Beta-2-glycoprotein 1: GRTCPKPDDLPFSTVVPLKTFYEPGEEITYSCKPGYVSRGGMRKFICPLTGLWPINTLKCTPRVCPFAGILENGAVRYTTFEYPNTISFSCNTGFYLNGADSAKCTEEGKWSPELPVCAPIICPPPSIPTFATLRVYKPSAGNNSLYRDTAVFECLPQHAMFGNDTITCTTHGNWTKLPECREVKCPFPSRPDNGFVNYPAKPTLYYKDKATFGCHDGYSLDGPEEIECTKLGNWSAMPSCKASCKVPVKKATVVYQGERVKIQEKFKNGMLHGDKVSFFCKNKEKKCSYTEDAQCIDGTIEVPKCFKEHSSLAFWKTDASDVKPC
modifications: grafted on beads
Take B1: the P/2N worked out at 0.928 in assay [1] (setting [3]); 1.112 in assay [1] (setting [4]); 0.974 in assay [1] (setting [5]); 4.9 in assay [1] (setting [6]); 0.69 in assay [1] (serum DS 45s (healthy donor)); 0.79 in assay [1] (serum DS 46s (healthy donor)). The P/2N worked out at 0.637 in assay [1] (serum DS 60s (healthy donor)) and 0.498 in assay [1] (serum DS 61s (healthy donor)). Also, the “% compared to β2GPI” value (in assay [2]; with Yeast; with E. faecium; in the assay with S. maltophilia) was 100% throughout.
